These results are taken from patent US11208419B2, “Phenylbenzofuran compound, preparation method therefor, composition containing the same and medical application thereof” (Guangxi Botanical Garden of Medicinal Plants, priority 2018, dated 2021).

What all share (assay type): cell-based
Assay [1] relates to nasopharyngeal carcinoma cell CNE-1. Put plainly: MTT anti-tumor experiment in vitro, inhibition of nasopharyngeal carcinoma cell CNE-1. The procedure: (§1) Experiment 1, anti-tumor experiment of MTT in vitro
Inhibition experiment of nasopharyngeal carcinoma cell CNE-1
(§2) F1, 0.25% trypsin was added to nasopharyngeal carcinoma cell CNE-1 in the logarithmic growth phase for cell dissociation until adherent cells were failed off. Cell suspension containing 2×10^4 nasopharyngeal carcinoma cells CNE-1 per mL was prepared.
(§3) F2, a 96-well plate was taken, one row of the 96-well plate was set as a blank group, 9 rows were set as the experimental group 1, one row was set as the experimental group 2, and one row was set as the negative control group, wherein 6 wells in the middle of each row were used for the experiment and was added of 100 μL of RPMI-1640 medium, wherein the medium of negative control group contained 1% DMSO.
(§4) F3, 100 μL of cell suspension was added to each well of the blank group, the experimental group 1, the experimental group 2, and the negative control group. Then, the 96-well plate was placed in an incubator at 37 degree Celsius, 5% CO2, and 95% humidity, and cultured in the incubator for 12 hours. 100 μL phenylbenzofuran compound (phenylbenzofuran compound of embodiment 3) with a concentration was added to wells of each row of 9 rows in the experimental group 1, ie, 10 μg/mL, 20 μg/mL, 30 μg/mL, 40 μg/mL, 50 μg/mL, 60 μg/mL, 70 μg/mL, 80 μg/mL, and 90 μg/mL, wherein the concentration of phenylbenzofuran compound of wells in the same row was equal. As a parallel experiment, cisplatin (80 μg/mL, 100 μL) was added to wells of a row in the experimental group 2. Then, the 96-well plate was placed in an incubator at 37 degree Celsius, 5% CO2, and 95% humidity, and cultured in the incubator for 48 hours. MTT (5 mg/mL, 20 μL) was added to each well. Then, the 96-well plate was placed in an incubator at 37 degree Celsius, 5% CO2, and 95% humidity, and cultured in the incubator for 4 hours. The supernatant as removed by a pipette tip, 150 μL of DMSO was added, and the mixture was shaken for 10 minutes in a micro shaker to cause complete dissolution of crystal. The OD value of each well was measured at a wavelength of 570 nm by a microplate reader, and the IC50 value was calculated. That is, the concentration when the inhibition rate of the cells reached 50% was the IC50 value.
Proliferation rate of CNE-1 cell=(average of experimental group-average of blank control group)/(average of negative control group-average of blank control group)×100%.
Inhibition rate of CNE-1 cell=[…] of CNE-1 cell.

The test system of assay [2] is nasopharyngeal carcinoma cell CNE-2. Put plainly: MTT anti-tumor experiment in vitro, inhibition of nasopharyngeal carcinoma cell CNE-2. On the procedure:
as §1, §2, §3, §4
Inhibition experiment of nasopharyngeal carcinoma cell CNE-2
The experimental procedure of the inhibition experiment of nasopharyngeal carcinoma cell CNE-2 was the same as that of the inhibition experiment of nasopharyngeal carcinoma cell CNE-1, except that the nasopharyngeal carcinoma cell CNE-1 was replaced with the nasopharyngeal carcinoma cell CNE-2.

The subject of assay [3] is nasopharyngeal carcinoma cell CNE-1. Put plainly: MTT anti-tumor experiment in vitro, inhibition of nasopharyngeal carcinoma cell CNE-1. The note with it: 100 μg/mL, 48 hours, read-out: Inhibition rate of nasopharyngeal carcinoma cells (%) CNE-1.
For assay [4], the system named is nasopharyngeal carcinoma cell CNE-2. Nature of the assay: MTT anti-tumor experiment in vitro, inhibition of nasopharyngeal carcinoma cell CNE-2. The settings on record: Homo sapiens, 100 μg/mL, 48 hours, read-out: Inhibition rate of nasopharyngeal carcinoma cells (%) CNE-2.

In brackets after ≈: the same amount, converted by molar mass.

For the compound `Oc1ccc(-c2cc3cc4c(cc3o2)OCO4)c(O)c1` [Phenylbenzofuran compound], the inhibition – broadly, the percentage by which the read-out fell short of the control – at 10 µg/mL stood at 25 ± 0.07% in assay [1] (10 μg/mL, 48 hours, MTT, read-out: Inhibition rate of nasopharyngeal carcinoma cells (%) CNE-1) and 28.4 ± 0.36% in assay [2] (Homo sapiens, CNE-2, 10 μg/mL, 48 hours, MTT, read-out: Inhibition rate of nasopharyngeal carcinoma cells (%) CNE-2). The inhibition at 20 µg/mL in assay [1] (20 μg/mL, 48 hours, MTT, read-out: Inhibition rate of nasopharyngeal carcinoma cells (%) CNE-1) was 37.57 ± 0.03%; in assay [2] (Homo sapiens, CNE-2, 20 μg/mL, 48 hours, MTT, read-out: Inhibition rate of nasopharyngeal carcinoma cells (%) CNE-2) it was 43.61 ± 0.29%. The inhibition at 30 µg/mL in assay [1] (30 μg/mL, 48 hours, MTT, read-out: Inhibition rate of nasopharyngeal carcinoma cells (%) CNE-1) worked out at 45.52 ± 0.07%; in assay [2] (Homo sapiens, CNE-2, 30 μg/mL, 48 hours, MTT, read-out: Inhibition rate of nasopharyngeal carcinoma cells (%) CNE-2) it was 48.5 ± 0.6%. Besides, the inhibition at 40 µg/mL is 60.37 ± 0.06% in assay [1] (40 μg/mL, 48 hours, MTT, read-out: Inhibition rate of nasopharyngeal carcinoma cells (%) CNE-1) and 75.18 ± 0.09% in assay [2] (Homo sapiens, CNE-2, 40 μg/mL, 48 hours, MTT, read-out: Inhibition rate of nasopharyngeal carcinoma cells (%) CNE-2). Besides, the inhibition at 50 µg/mL is 68.5 ± 0.09% in assay [1] (50 μg/mL, 48 hours, MTT, read-out: Inhibition rate of nasopharyngeal carcinoma cells (%) CNE-1) and 84.42 ± 0.44% in assay [2] (Homo sapiens, CNE-2, 50 μg/mL, 48 hours, MTT, read-out: Inhibition rate of nasopharyngeal carcinoma cells (%) CNE-2). Further, the inhibition at 60 µg/mL in assay [1] (60 μg/mL, 48 hours, MTT, read-out: Inhibition rate of nasopharyngeal carcinoma cells (%) CNE-1) is 75.01 ± 0.13%; in assay [2] (Homo sapiens, CNE-2, 60 μg/mL, 48 hours, MTT, read-out: Inhibition rate of nasopharyngeal carcinoma cells (%) CNE-2), 95.13 ± 0.22%. The inhibition at 70 µg/mL in assay [1] (70 μg/mL, 48 hours, MTT, read-out: Inhibition rate of nasopharyngeal carcinoma cells (%) CNE-1) amounted to 85.83 ± 0.06%; in assay [2] (Homo sapiens, CNE-2, 70 μg/mL, 48 hours, MTT, read-out: Inhibition rate of nasopharyngeal carcinoma cells (%) CNE-2) it was 97.27 ± 0.6%. For the same compound, the inhibition at 80 µg/mL in assay [1] (80 μg/mL, 48 hours, MTT, read-out: Inhibition rate of nasopharyngeal carcinoma cells (%) CNE-1) is 97.02 ± 0.11%; in assay [2] (Homo sapiens, CNE-2, 80 μg/mL, 48 hours, MTT, read-out: Inhibition rate of nasopharyngeal carcinoma cells (%) CNE-2), 98.78 ± 0.09%. The inhibition at 90 µg/mL in assay [1] (90 μg/mL, 48 hours, MTT, read-out: Inhibition rate of nasopharyngeal carcinoma cells (%) CNE-1) amounted to 97.81 ± 0.06%; in assay [2] (Homo sapiens, CNE-2, 90 μg/mL, 48 hours, MTT, read-out: Inhibition rate of nasopharyngeal carcinoma cells (%) CNE-2) it was 98.82 ± 0.44%. Besides, the IC50 in assay [1] (CNE-1, 48 hours, read-out: concentration at which the inhibition rate reaches half inhibition growth effect) was determined as 20 µg/mL (≈ 74 µM); in assay [2] (Homo sapiens, CNE-2, 48 hours, read-out: concentration at which the inhibition rate reaches half inhibition growth effect), 15 µg/mL (≈ 55.5 µM). The results for the inhibition at 100 µg/mL in assay [3] and in assay [4] were 97.41 ± 0.02% and 98.64 ± 0.22%, respectively.
As to `N.N.[Cl][Pt][Cl]` [Cisplatin, cisplatin, reference compound], the “Inhibition rate of nasopharyngeal carcinoma cells (%) CNE-1” value in assay [1] (80 μg/mL, 48 hours, MTT) is recorded as 94.21 ± 0.18%. Besides, the “Inhibition rate of nasopharyngeal carcinoma cells (%) CNE-2” value in assay [2] (80 μg/mL, 48 hours, MTT) is reported as 97.37 ± 0.49%.
